Where two headings read alike, the source gives them in different places.
Tested on: CDK4/6 protein
Experiment: Western-blot determination of CDK4/6 protein degradation (DC50) in T-47D cells
Type: cell-based, human
[1] = 24 h drug treatment, read-out: DC50(nM)/T-47D cell line

| SMILES | DC50 [1] [nM] | DC50 (read-out: DC50(nM)/T-47D cell line, 24 h drug treatment) [nM] |
| --- | --- | --- |
| CN(C)C(=O)c1cc2cnc(Nc3ccc(N4CCN(C(=O)CCCCSc5cccc6c5C(=O)N(C5CCC(=O)NC5=O)C6=O)CC4)cn3)nc2n1C1CCCC1 (stereo not drawn) [SIAIS219103, 7-cyclopentyl-2-((5-(4-(5-((2-(2,6-dioxopiperidin-3-yl)-1,3-dioxoisoindolin-4-yl)thio)pentanoyl)piperazin-1-yl)pyridin-2-yl)amino)-N,N-dimethyl-7H-pyrrolo[2,3-d]pyrimidine-6-carboxamide] | < 1 |  |
| CC(=O)c1c(C)c2cnc(Nc3ccc(N4CCN(C(=O)CCCCCCSc5cccc6c5CN(C5CCC(=O)NC5=O)C6=O)CC4)cn3)nc2n(C2CCCC2)c1=O (stereo not drawn) [SIAIS219055, 3-(4-((7-(4-(6-((6-acetyl-8-cyclopentyl-5-methyl-7-oxo-7,8-dihydropyrido[2,3-d]pyrimidin-2-yl)amino)pyridin-3-yl)piperazin-1-yl)-7-oxoheptyl)thio)-1-oxoisoindolin-2-yl)piperidine-2,6-dione] | < 1 |  |
| Cc1nc2c(F)cc(-c3nc(Nc4ccc(CN5CCN(C(=O)CCCSc6cccc7c6CN(C6CCC(=O)NC6=O)C7=O)CC5)cn4)ncc3F)cc2n1C(C)C (stereo not drawn) [SIAIS262166, 3-(4-((4-(4-((6-((5-fluoro-4-(4-fluoro-1-isopropyl-2-methyl-1H-benzo[d]imidazol-6-yl)pyrimidin-2-yl)amino)pyridin-3-yl)methyl)piperazin-1-yl)-4-oxobutyl)thio)-1-oxoisoindolin-2-yl)piperidine-2,6-dione] | 0.5 to 5 |  |
| Cc1nc2c(F)cc(-c3nc(Nc4ccc(CN5CCN(C(=O)CCSc6cccc7c6CN(C6CCC(=O)NC6=O)C7=O)CC5)cn4)ncc3F)cc2n1C(C)C (stereo not drawn) [SIAIS262165, 3-(4-((3-(4-((6-((5-fluoro-4-(4-fluoro-1-isopropyl-2-methyl-1H-benzo[d]imidazol-6-yl)pyrimidin-2-yl)amino)pyridin-3-yl)methyl)piperazin-1-yl)-3-oxopropyl)thio)-1-oxoisoindolin-2-yl)piperidine-2,6-dione] | 5 |  |
| Cc1nc2c(F)cc(-c3nc(Nc4ccc(CN5CCN(C(=O)CCCCCSc6cccc7c6CN(C6CCC(=O)NC6=O)C7=O)CC5)cn4)ncc3F)cc2n1C(C)C (stereo not drawn) [SIAIS262168, 3-(4-((6-(4-((6-((5-fluoro-4-(4-fluoro-1-isopropyl-2-methyl-1H-benzo[d]imidazol-6-yl)pyrimidin-2-yl)amino)pyridin-3-yl)methyl)piperazin-1-yl)-6-oxohexyl)thio)-1-oxoisoindolin-2-yl)piperidine-2,6-dione] | 0.05 to 0.5 |  |
| CC(=O)c1c(C)c2cnc(Nc3ccc(N4CCN(C(=O)COCCOCCSc5cccc6c5C(=O)N(C5CCC(=O)NC5=O)C6=O)CC4)cn3)nc2n(C2CCCC2)c1=O (stereo not drawn) [SIAIS219059, 4-((2-(2-(2-(4-(6-((6-acetyl-8-cyclopentyl-5-methyl-7-oxo-7,8-dihydropyrido[2,3-d]pyrimidin-2-yl)amino)pyridin-3-yl)piperazin-1-yl)-2-oxoethoxy)ethoxy)ethyl)thio)-2-(2,6-dioxopiperidin-3-yl)isoindoline-1,3-dione] | 10 to 50 |  |
| CN(C)C(=O)c1cc2cnc(Nc3ccc(N4CCN(C(=O)COCCOCCOCCOCCOCCSc5cccc6c5CN(C5CCC(=O)NC5=O)C6=O)CC4)cn3)nc2n1C1CCCC1 (stereo not drawn) [SIAIS219110, 7-cyclopentyl-2-((5-(4-(17-((2-(2,6-dioxopiperidin-3-yl)-1-oxoisoindolin-4-yl)thio)-3,6,9,12,15-pentaoxaheptadecanoyl)piperazin-1-yl)pyridin-2-yl)amino)-N,N-dimethyl-7H-pyrrolo[2,3-d]pyrimidine-6-carboxamide] | 0.04 to 0.2 |  |
| CN(C)C(=O)c1cc2cnc(Nc3ccc(N4CCN(C(=O)COCCOCCOCCOCCSc5cccc6c5CN(C5CCC(=O)NC5=O)C6=O)CC4)cn3)nc2n1C1CCCC1 (stereo not drawn) [SIAIS219109, 7-cyclopentyl-2-((5-(4-(14-((2-(2,6-dioxopiperidin-3-yl)-1-oxoisoindolin-4-yl)thio)-3,6,9,12-tetraoxatetradecanoyl)piperazin-1-yl)pyridin-2-yl)amino)-N,N-dimethyl-7H-pyrrolo[2,3-d]pyrimidine-6-carboxamide] | 1 to 10 |  |
| CC(=O)c1c(C)c2cnc(Nc3ccc(N4CCN(CCSc5cccc6c5C(=O)N(C5CCC(=O)NC5=O)C6=O)CC4)cn3)nc2n(C2CCCC2)c1=O (stereo not drawn) [SIAIS219063, 4-((2-(4-(6-((6-acetyl-8-cyclopentyl-5-methyl-7-oxo-7,8-dihydropyrido[2,3-d]pyrimidin-2-yl)amino)pyridin-3-yl)piperazin-1-yl)ethyl)thio)-2-(2,6-dioxopiperidin-3-yl)isoindoline-1,3-dione] | < 1 |  |
| CN(C)C(=O)c1cc2cnc(Nc3ccc(N4CCN(C(=O)COCCSc5cccc6c5C(=O)N(C5CCC(=O)NC5=O)C6=O)CC4)cn3)nc2n1C1CCCC1 (stereo not drawn) [SIAIS219111, 7-cyclopentyl-2-((5-(4-(2-(2-((2-(2,6-dioxopiperidin-3-yl)-1,3-dioxoisoindolin-4-yl)thio)ethoxy)acetyl)piperazin-1-yl)pyridin-2-yl)amino)-N,N-dimethyl-7H-pyrrolo[2,3-d]pyrimidine-6-carboxamide] |  | < 1 |
| CN(C)C(=O)c1cc2cnc(Nc3ccc(N4CCN(C(=O)CCCCSc5cccc6c5CN(C5CCC(=O)NC5=O)C6=O)CC4)cn3)nc2n1C1CCCC1 (stereo not drawn) [SIAIS219089, 7-cyclopentyl-2-((5-(4-(5-((2-(2,6-dioxopiperidin-3-yl)-1-oxoisoindolin-4-yl)thio)pentanoyl)piperazin-1-yl)pyridin-2-yl)amino)-N,N-dimethyl-7H-pyrrolo[2,3-d]pyrimidine-6-carboxamide] | 1 to 10 |  |
| CC(=O)c1c(C)c2cnc(Nc3ccc(N4CCN(C(=O)CCSc5cccc6c5C(=O)N(C5CCC(=O)NC5=O)C6=O)CC4)cn3)nc2n(C2CCCC2)c1=O (stereo not drawn) [SIAIS184086, 4-((3-(4-(6-((6-acetyl-8-cyclopentyl-5-methyl-7-oxo-7,8-dihydropyrido[2,3-d]pyrimidin-2-yl)amino)pyridin-3-yl)piperazin-1-yl)-3-oxopropyl)thio)-2-(2,6-dioxopiperidin-3-yl)isoindoline-1,3-dione] | > 500 |  |
| CC(=O)c1c(C)c2cnc(Nc3ccc(N4CCN(C(=O)CSc5cccc6c5CN(C5CCC(=O)NC5=O)C6=O)CC4)cn3)nc2n(C2CCCC2)c1=O (stereo not drawn) [SIAIS219051, 3-(4-((2-(4-(6-((6-acetyl-8-cyclopentyl-5-methyl-7-oxo-7,8-dihydropyrido[2,3-d]pyrimidin-2-yl)amino)pyridin-3-yl)piperazin-1-yl)-2-oxoethyl)thio)-1-oxoisoindolin-2-yl)piperidine-2,6-dione] | < 1 |  |
| CN(C)C(=O)c1cc2cnc(Nc3ccc(N4CCN(C(=O)CCCSc5cccc6c5C(=O)N(C5CCC(=O)NC5=O)C6=O)CC4)cn3)nc2n1C1CCCC1 (stereo not drawn) [SIAIS219102, 7-cyclopentyl-2-((5-(4-(4-((2-(2,6-dioxopiperidin-3-yl)-1,3-dioxoisoindolin-4-yl)thio)butanoyl)piperazin-1-yl)pyridin-2-yl)amino)-N,N-dimethyl-7H-pyrrolo[2,3-d]pyrimidine-6-carboxamide] | 1 to 10 |  |
| CC(=O)c1c(C)c2cnc(Nc3ccc(N4CCN(C(=O)CCCSc5cccc6c5CN(C5CCC(=O)NC5=O)C6=O)CC4)cn3)nc2n(C2CCCC2)c1=O (stereo not drawn) [SIAIS219053, 3-(4-((4-(4-(6-((6-acetyl-8-cyclopentyl-5-methyl-7-oxo-7,8-dihydropyrido[2,3-d]pyrimidin-2-yl)amino)pyridin-3-yl)piperazin-1-yl)-4-oxobutyl)thio)-1-oxoisoindolin-2-yl)piperidine-2,6-dione] | < 1 |  |
